The results in this text go back to US6727059B1, “METHOD FOR CONTROLLING THE FIDELITY AND PROCESSIVITY OF REVERSE TRANSCRIPTASE BY INCORPORATION AND POLYMERIZATION OF NUCLEOTIDE ANALOGS ACCEPTED AS SUBSTRATES FOR THE REVERSE TRANSCRIPTION REACTION WITHOUT BLOCKING ITS ELONGATION” (priority 2002, dated 2004).

Holding throughout (format): biochemical
Test [1] concerns the target T1, HIV-1 reverse transcriptase (Human immunodeficiency virus type 1 group M subtype B, UniProt P04585). Kind of test: Identification of termination sites of polymerization with base analogs, HIV-1 reverse transcriptase. Conditions: pbs primer; for number of new termination sites appearing / termination rate with the analog compared to the normal dNTP, overall: analog replaces its normal dNTP; for termination rate with the analog compared to the normal dNTP, overall: each dNTP 500 μM, 30 min 37° C. From the text:
The termination sites and the termination rates at each site were studied in the presence of 4 natural dNTPs present in excess, or in the presence of three of these natural dNTPs, the fourth being replaced with an analog: dUTP as a replacement for dTTP, dITP and c7dGTP as a replacement for dGTP and, finally, c7dATP in place of dATP (FIGS. 1.2 and 1.3). These analogs affect the formation of the hydrogen bonds in the two grooves of the double helix.
(§1) The termination sites were identified during polymerization catalyzed by the HIV-1 reverse transcriptase and the Klenow fragment by changing one of the dNTPs for its base analog. dTTP was replaced with dUTP, dGTP was replaced with dITP or c7dGTP and dATP was replaced with c7dATP. In this study, the synthesis is primed with pbs.
(§2) The reaction begins by formation of the reaction complex between the matrix/primer labeled at the 5′ end (0.05 pmol) with the enzyme (0.01 U/μl) by incubation at 37° C. for 3 min for the 3 RTs and at 25° C. for the Klenow fragment. A solution containing the 3 dNTPs and one of the analogs, each at the final concentration of 500 μM, and trapping DNA (100:1:trapping DNA:matrix/cold primer) is then added. The use of trapping DNA makes it possible to prevent the reinitialization of the polymerization at the termination sites. In parallel, a control in the presence of the 4 “normal” dNTPs was carried out under reaction conditions identical to the reaction in the presence of analogs. The mixture is incubated for 30 min at 37° C. for the HIV-1 reverse transcriptase and at 25° C. for the Klenow fragment. The reaction is stopped by adding ⅓ volume of stop solution (v/v), and then the reaction products are loaded onto a denaturing 8 M urea 13% acrylamide gel. Position of the termination sites is identified by the co-migration of the sequencing products (Sanger method).
(§3) Each reaction was carried out 3 times; variations in the strength of the termination rates are observed, but they are small and less than 10%. For the HIV-1 reverse transcriptase and the Klenow fragment, the synthesis termination rates with the various analogs (black rods) as a function of the sequence are given in the presence of the termination rates obtained in the control reaction, i.e. in the presence of the “normal” bases (white rods).

Test [2] deals with T2, Klenow fragment of E.coli DNA-dependent DNA polymerase (Escherichia coli, UniProt P00582).
T2 construct: the Klenow fragment of E.coli DNA-dependent DNA polymerase (KF)
Kind of test: Identification of termination sites of polymerization with base analogs, Klenow fragment. Conditions: pbs primer; for termination rate with the analog compared to the normal dNTP: analog replaces its normal dNTP, each dNTP 500 μM, 30 min 25° C., positions +20 to +55.
Description: These matrices were used for parallel studies of HIV-1 reverse transcriptase and of the Klenow fragment of E.coli DNA-dependent DNA polymerase (KF). There have been many studies relating to the fidelity and processivity of the Klenow fragment (Abbotts and Wilson, 1988; Lecomte and Ninio, 1987, 1988; Papanicolaou and Ripley, 1989 and 1991).
as §1, §2, §3
Overall, the presence of the base analogs reduces the efficiency of the Klenow fragment polymerization, making it difficult to detect termination sites beyond the position +55, and for this reason, we have represented, in the various figures which follow, only the termination sites located between position +20 and +55.

Test [3] addresses T1, HIV-1 reverse transcriptase. Kind of test: Kinetics of misincorporation (error rate) in the minus A reaction with base analogs. Conditions: absence of dATP; for error rate at the first misincorporation site opposite T-135, start of the kinetics: starting value. The text has this: In order to understand the role of the three dNTPs present involved in the misincorporation subsequent to the absence of the fourth dNTP, dGTP and/or dCTP were replaced with dITP and dUTP, respectively, in the reaction minus A. dITP was chosen because I can pair with T and therefore compensate for the absence of A, and dUTP was chosen in order to assess the affect that the absence of the methyl of a T may have on the fidelity of incorporation of the neighboring pair. For this reason, we are interested not only in the sites and rates of misincorporations, but in the kinetics with which these misincorporations take place. The conditions most suited to the lack of fidelity of the HIV-RT were selected: use of the matrix+env (ppt primer) and absence of dATP (data not shown).
After hybridization of the ppt primer labeled at the 5′ end (1 pmol), with the matrix+env (2 pmol), the HIV-1 reverse transcriptase is added at the final concentration of 0.1 U/μl. Solutions containing dCTP, dGTP, dTTP (control), dCTP, dITP, dTTP or dCTP, dGTP, dUTP or dCTP, dITP, dUTP, each at the final concentration of 500 μM, were added to equivalent (¼ of the mixture) fractions. […] After denaturation at 92° C. for 5 min, the reaction products are loaded onto an 8M urea denaturing 13% acrylamide gel.
FIG. 4.4 represents the variation in the misincorporation rate in front of T-135 (matrix), the first misincorporation site, as a function of time and of the base analog used.

Test [4] has the same target. Briefly: Analysis of mismatches: restriction test and sequencing of mutated plasmids from the minus A reaction. The conditions noted are these: for fidelity of the HIV-1 reverse transcriptase / profile of mutations: analog instead of normal dNTP. The method, then:
Matrix/labeled primer (0.5 pmol), reverse transcriptase (0.04 U/μl) and the 3 dNTPs (500 μM final) were incubated for 30 min at 37° C., and then the dATP (500 μM final) was added and the incubation continued for 30 min at 37° C. The reaction is then stopped by adding EDTA at the concentration of 10 mM final. The reaction products are recovered after alcohol precipitation and digested with the Sac I enzyme. After denaturation at 90° C. for 3 min, the product is loaded onto a denaturing 10% acrylamide gel. After migration and auto-radiography, the 200-base bands are recovered on the gel and then purified. These fragments are amplified by PCR (15 cycles), cleaved with Mlu I and Bam H I and inserted into pBluescript SK+ppt by ligation with T4 DNA ligase, followed by transformation with XL-1 Blue.
The mutated plasmids are easily selected since they no longer have the restriction site recognized by the Nco I enzyme (see FIG. 4.5). In addition, the absence of enzymatic digestion with Sph I implies a double mutation.
The polymerization reaction was carried out in the absence of dATP, as for the reaction in the presence of the “natural” bases, but the dGTP was replaced with dITP or the dTTP was replaced by dUTP. After 30 min at 37° C. in the presence of the HIV-1 reverse transcriptase and of 3 of the 4 bases, the matrix/labeled primer is purified on a Sephadex G50 column, so as to eliminate the nucleotides which have not been incorporated, and in particular the dITP and dUTP which would modify the Sac I restriction site. The elongation is then continued for 30 min at 37° C. in the presence of the 4 natural dNTPs, at the final concentration of 500 μM, and of the enzyme (0.05 U/μl). After alcohol precipitation, digestion with the Sac I restriction enzyme and recovery of the 200-base band, a PCR is carried out under the same conditions as for the reaction in the presence of the “natural” bases. […]

[5] abbreviates: matrix +env, ppt primer, dNTPs 500 μM each.
The mark [6] stands for this setting: 7 plasmids sequenced, minus A, dITP instead of dGTP.
Setting [7] is: of 36 plasmids isolated, minus A, Nco I and Sph I digestion test.
Setting [8] is: sequenced plasmids, absence of dATP and dGTP.

T2 sequence (P00582 324-928): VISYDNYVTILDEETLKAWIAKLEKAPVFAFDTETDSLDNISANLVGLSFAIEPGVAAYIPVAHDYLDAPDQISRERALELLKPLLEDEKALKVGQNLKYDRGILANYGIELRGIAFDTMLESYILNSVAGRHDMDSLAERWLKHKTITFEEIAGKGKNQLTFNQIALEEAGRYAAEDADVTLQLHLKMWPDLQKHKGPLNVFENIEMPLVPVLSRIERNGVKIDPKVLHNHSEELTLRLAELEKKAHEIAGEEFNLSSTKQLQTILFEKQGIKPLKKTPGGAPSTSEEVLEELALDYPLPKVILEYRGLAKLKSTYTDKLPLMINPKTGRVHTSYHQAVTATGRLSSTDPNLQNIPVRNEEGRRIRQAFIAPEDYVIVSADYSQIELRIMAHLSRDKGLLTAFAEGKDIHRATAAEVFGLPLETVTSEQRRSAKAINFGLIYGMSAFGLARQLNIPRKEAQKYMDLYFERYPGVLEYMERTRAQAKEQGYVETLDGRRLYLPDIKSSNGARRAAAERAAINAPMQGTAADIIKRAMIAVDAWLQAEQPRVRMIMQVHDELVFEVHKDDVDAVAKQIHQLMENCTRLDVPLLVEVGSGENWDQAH

`Nc1ncnc2c1ccn2[C@H]1C[C@H](O)[C@@H](COP(=O)(O)OP(=O)(O)OP(=O)(O)O)O1` [c7dATP]: the “number of new termination sites appearing” value in test [1] (500 μM) worked out at 3 sites. Also, the “termination rate with the analog compared to the normal dNTP, overall” value in test [1] is “little effect overall”. Moreover, in test [1] (c7dATP instead of dATP, 500 μM), the “decrease of the termination rate on A75” value was about 2 fold, the “increase of termination strength opposite A41” value is reported as 7 ×, the “increase of termination strength opposite T76” value turned out to be 2 × and the “increase of the termination rate at A41” value is listed as about 7 fold. For the same molecule, in test [1] (c7dATP instead of dATP, 500 μM), the “part of the elongation complexes stopped at new site T63” value was “half” and the “termination rate on A35” value is given as “remains stable”. In test [2], the “termination rate with the analog compared to the normal dNTP” value is on record as “increase in the termination rates in 3 waves”.

`Nc1nc2c(ccn2C2CC(O)C(COP(=O)(O)OP(=O)(O)OP(=O)(O)O)O2)c(=O)[nH]1` (centres unmarked) [c7dGTP]: in test [1] (500 μM), the “number of new termination sites appearing” value amounted to 4 sites. Besides, the “termination rate with the analog compared to the normal dNTP, overall” value in test [1] was “considerable increase at the start of elongation, and then a clear tendency toward decreasing the termination rate”. For the same molecule, in test [1] (c7dGTP instead of dGTP, 500 μM), the “decrease of the termination rate at other sites” value is recorded as “up to 10 fold”, the “decrease of the termination rate opposite C21” value is reported as 10%, the “decrease of the termination rate opposite C49” value came out at 90% and the “increase of the termination rate at 6 of the 18 termination sites” value was “up to 3.5 fold”. Also, the “termination rate with the analog compared to the normal dNTP” value in test [2] was “All the stops on the sites at which the c7dGMP is incorporated into the polymerized strand are increased”. For the same molecule, the “decrease of the termination rate at C32” value in test [2] (c7dGTP instead of dGTP, 500 μM) came to 26%.

For the molecule `O=c1[nH]cnc2c1ncn2[C@H]1C[C@H](O)[C@@H](COP(=O)(O)OP(=O)(O)OP(=O)(O)O)O1` [dITP], in test [1] (500 μM), the “number of new termination sites appearing” value was “Two”. Also, the “termination rate with the analog compared to the normal dNTP, overall” value in test [1] was “higher”. In addition, in test [1] (dITP instead of dGTP, 500 μM), the “factor of increase in the termination rates of 10 sites” value is listed as about 4 and the “termination strength at the exit of the series of 6As, on average” value is recorded as “doubled”. Moreover, in test [2], the “termination rate with the analog compared to the normal dNTP” value is “increases in the termination rates of the sites located before the incorporation of a dITP”. Also, the “decrease of the error rate observed with dGTP at the first misinsertion site” value in test [3] (dITP instead of dGTP, after 45 min of incubation) is recorded as about 50%. In test [3] (setting [5]), the “error rate at the first misincorporation site opposite T-135 after 10 min” value amounted to 40% and the “error rate at the first misincorporation site opposite T-135, start of the kinetics” value is 0%. In addition, in test [4] (7 plasmids sequenced, minus A), the “deletion or insertion in the plasmids sequenced” value was “No deletion or insertion is detected”. In test [4] (setting [6]), the “times C is incorporated at the 1st site of misincorporation (T-135 matrix)” value is 4 times and the “times the I base is incorporated at the 1st site of misincorporation (T-135 matrix)” value turned out to be 3 times. In test [4] (absence of dATP), the “order of substitution at the T sites of the matrix” value is “C>>I>>T” and the “fidelity of the HIV-1 reverse transcriptase / profile of mutations” value is “increased”. Besides, the mutation rate result in test [4] (in vitro, absence of dATP, dITP instead of dGTP) is “decreases the mutation rate”. Further, in test [4] (setting [7]), the “plasmids mutated at least on the first site at which A is requested” value is given as 4 plasmids, the “plasmids mutated on at least the first three sites” value was found to be 3 plasmids and the “plasmids mutated on the first two sites” value is listed as “one”. In test [4] (setting [8]), the “number of T:I pairings” value is listed as “three” and the “number of T:T pairings” value is given as “one”. Moreover, in test [4] (sequenced plasmids, minus A), the “number of T:C mismatches, all mismatches whatever their position” value was “eight”.

As to `O=c1ccn([C@H]2C[C@H](O)[C@@H](COP(=O)(O)OP(=O)(O)OP(=O)(O)O)O2)c(=O)[nH]1` [dUTP], the “termination rate with the analog compared to the normal dNTP, overall” value in test [1] was “lower than with dTTP”. In test [1] (dUTP instead of dTTP, 500 μM), the “decrease of the termination rate of most of the sites located before and after the incorporation of the analog (maximum)” value was at most 5%; the “number of sites with a decrease of more than half of their termination rate” value was “Seven”. Moreover, the “termination rate with the analog compared to the normal dNTP” value in test [2] is “significantly increases the termination rate of most of the sites which precede the incorporation of the dUMP”. In test [3] (setting [5]), the “error rate at the first misincorporation site opposite T-135 after 10 min” value was determined as 65% and the “error rate at the first misincorporation site opposite T-135, start of the kinetics” value is recorded as 5%. Besides, the “error rate at the first misincorporation site opposite T-135 after 45 min” value in test [3] (matrix +env, ppt primer, dNTPs 500 μM each, 45 min) is reported as about 77%. Moreover, the “T:U mismatch” value in test [4] (6 plasmids sequenced, minus A, dUTP instead of dTTP) was “No base U is incorporated”. The “fidelity of the HIV-1 reverse transcriptase / profile of mutations” value in test [4] (absence of dATP) is “only slightly modifies the profile and the specificity of the mutations”. Also, in test [4] (of 36 plasmids, minus A), the “plasmids without any mutations on the Sph I and Nco I sites” value stood at 15 plasmids. In addition, in test [4] (of 36 plasmids, minus A, Sph I and Nco I digestion), the “plasmids with at least two mutations” value was 21 plasmids. In addition, in test [4] (sequenced plasmids, minus A), the “number of T:C mismatches, all mismatches whatever their position” value worked out at 6 and the “number of T:G mismatches, all mismatches whatever their position” value turned out to be 17.
